Patent publication US12410166B2, “Sulfonylamidine substituted compounds and their use as beta-lactamase inhibitors” (NINGXIA ACADEMY OF AGRICULTURE AND FORESTRY SCIENCES, priority 2021, dated 2025)
Where a name gives a salt, the structure may show the parent alone. Read-outs that look alike come from different tables or passages of the source.

What was measured:
Assay in all cases: MIC by broth microdilution (antibacterial and synergistic activity)
Assay type in all cases: cell-based
[1] = tested on: K. pneumoniae clinical isolate (strain 3, SHV-1); conditions: Klebsiella pneumoniae, read-out: Antibacterial activity, MIC, inhibitor Alone
Experimental: (§1) Compounds of the present invention alone, avibactam (AVI) alone, relebactam (REL) alone, meropenem (MER) alone, imipenem (IMI) alone, and as a combination of compounds of the present invention, or avibactam or relebactam with test antibiotic (meropenem or imipenem) was tested for antimicrobial activity by determining minimum inhibitory concentration (MIC, mg/L) using the broth microdilution method according to the guidelines of the Clinical Laboratories and Standards Institute (“Methods for Dilution Antimicrobial Susceptibility Tests for Bacterial that Grow Aerobically”, Approved standard, 7th ed., Clinical and Laboratories Standards Institute (CLSI) Document M7-A8, Wayne, Pa., USA, 2009). Meropenem or imipenem as a test antibiotic compound was dissolved in DMSO, and then diluted in microbial growth medium (Mueller-Hinton Broth II, cation adjusted) resulting in a final concentration range of 0.031-64 mg/L in serial two-fold dilution. In all cases the final DMSO concentration was less than 0.5%. Bacteria were added to 96-well microtitre plates containing the serial two-fold dilutions of the compounds; the final cell density was approximately 5×10^5 colony forming units/mL (CFU/mL). Plates were incubated at 37° C. for 18-24 hours and read visually. The MIC, i.e. the lowest concentration of the test compound that inhibited visible growth of the bacteria, was recorded. The same assay conditions were used when the compounds of present invention alone, avibactam or relebactam alone (as a control), and as a combination of the present invention each compound, or avibactam or relebactam with test meropenem or imipenem antibiotic compound was tested for minimum inhibitory concentration (MIC, mg/L). While test meropenem or imipenem was serially diluted as described above, a constant concentration of avibactam, or relebactam or the present invention each compound of 4 mg/L was used.
(§2) Bacterial strains that were used to evaluate the antimicrobial activity using the MIC determination included but were not limited to E. coli clinical isolate (strain 1, TEM-1), E. coli 8739 (strain 2, CTX-M15), K. pneumoniae clinical isolate (strain 3, SHV-1), K. pneumoniae 700603 (strain 4, KPC-3, TEM-1), E. cloacae clinical isolate (strain 5, P99), E. cloacae 700323 (strain 6, AmpC), A. baumannii clinical isolate (strain 7, OXA-23, OXA-40), A. baumannii 19606 (strain 8, OXA-24), P. aeruginosa clinical isolate (strain 9, KPC-2), P. aeruginosa 9027 (strain 10, AmpC).

[2] = tested on: P. aeruginosa 9027 (strain 10, AmpC); conditions: Pseudomonas aeruginosa, read-out: Antibacterial activity, MIC, inhibitor Alone
Experimental: as §1, §2

[3] = tested on: A. baumannii clinical isolate (strain 7, OXA-23, OXA-40); conditions: Acinetobacter baumannii, read-out: Antibacterial activity, MIC, inhibitor Alone
Experimental: as §1, §2

[4] = tested on: E. coli clinical isolate (strain 1, TEM-1); conditions: Escherichia coli, read-out: Antibacterial activity, MIC, inhibitor Alone
Experimental: as §1, §2

[5] = tested on: E. cloacae clinical isolate (strain 5, P99); conditions: Enterobacter cloacae, read-out: Antibacterial activity, MIC, inhibitor Alone
Experimental: as §1, §2

[6] = tested on: E. coli 8739 (strain 2, CTX-M15); conditions: Escherichia coli, read-out: Antibacterial activity, MIC, inhibitor Alone
Experimental: as §1, §2

[7] = tested on: A. baumannii 19606 (strain 8, OXA-24); conditions: Acinetobacter baumannii, read-out: Antibacterial activity, MIC, inhibitor Alone
Experimental: as §1, §2

[8] = tested on: P. aeruginosa clinical isolate (strain 9, KPC-2); conditions: Pseudomonas aeruginosa, read-out: Antibacterial activity, MIC, inhibitor Alone
Experimental: as §1, §2

[9] = tested on: E. cloacae 700323 (strain 6, AmpC); conditions: Enterobacter cloacae, read-out: Antibacterial activity, MIC, inhibitor Alone
Experimental: as §1, §2

[10] = tested on: K. pneumoniae 700603 (strain 4, KPC-3, TEM-1); conditions: Klebsiella pneumoniae, read-out: Antibacterial activity, MIC, inhibitor Alone
Experimental: as §1, §2

[11] = strain 3 (SHV-1), compound alone, no antibiotic
[12] = strain 10 (AmpC), compound alone, no antibiotic
[13] = strain 7 (OXA-23/40), compound alone, no antibiotic
[14] = strain 1 (TEM-1), compound alone, no antibiotic
[15] = strain 5 (P99), compound alone, no antibiotic
[16] = strain 9 (KPC-2), compound alone, no antibiotic
[17] = strain 6 (AmpC), compound alone, no antibiotic
[18] = strain 4 (KPC-3, TEM-1), compound alone, no antibiotic

Measured: MIC

CNS(=O)(=O)NC(=N)[C@@H]1CC[C@@H]2CN1C(=O)N2OS(=O)(=O)O [Ex. 17, (2S,5R)-2-(N—(N-Methylsulfamoyl)carbamimidoyl)-7-oxo-1,6-diazabicyclo[3.2.1]octan-6-yl hydrogen sulfate]
> 64 µg/mL: [1] | [2] | [3] | [4] | [5] | [6] | [7] | [8] | [9] | [10]

N=C(NS(=O)(=O)c1cccnc1)[C@@H]1CC[C@@H]2CN1C(=O)N2OS(=O)(=O)[O-].[Na+] [Ex. 13, Sodium (2S,5R)-7-oxo-2-(N-(pyridin-3-ylsulfonyl)carbamimidoyl)-1,6-diazabicyclo[3.2.1]octan-6-yl sulfate]
> 64 µg/mL: [1]; [11] | [2]; [12] | [3]; [13] | [4]; [14] | [5]; [15] | [6] | [7] | [8]; [16] | [9]; [17] | [10]; [18]

CCNS(=O)(=O)NC(=N)[C@@H]1CC[C@@H]2CN1C(=O)N2OS(=O)(=O)O [Ex. 18, (2S,5R)-2-(N—(N-Ethylsulfamoyl)carbamimidoyl)-7-oxo-1,6-diazabicyclo[3.2.1]octan-6-yl hydrogen sulfate]
> 64 µg/mL: [1]; [11] | [2]; [12] | [3]; [13] | [4]; [14] | [5]; [15] | [6] | [7] | [8]; [16] | [9]; [17] | [10]; [18]

COc1ccc(S(=O)(=O)NC(=N)[C@@H]2CC[C@@H]3CN2C(=O)N3OS(=O)(=O)O)nc1 [Ex. 22, (2S,5R)-2-(N-((5-methoxypyridin-2-yl)sulfonyl)carbamimidoyl)-7-oxo-1,6-diazabicyclo[3.2.1]octan-6-yl hydrogen sulfate]
> 64 µg/mL: [1]; [11] | [2]; [12] | [3]; [13] | [4]; [14] | [5]; [15] | [6] | [7] | [8]; [16] | [9]; [17] | [10]; [18]

N=C(NS(N)(=O)=O)[C@@H]1CC[C@@H]2CN1C(=O)N2OS(=O)(=O)O [Ex. 16, (2S,5R)-7-oxo-2-(N-Sulfamoylcarbamimidoyl)-1,6-diazabicyclo[3.2.1]octan-6-yl hydrogen sulfate]
> 64 µg/mL: [1]; [11] | [2]; [12] | [3]; [13] | [4]; [14] | [5]; [15] | [6] | [7] | [8]; [16] | [9]; [17] | [10]; [18]

CS(=O)(=O)NC(=N)[C@@H]1CC[C@@H]2CN1C(=O)N2OS(=O)(=O)[O-].[Na+] [Ex. 5, Sodium (2S,5R)-2-(N-(methylsulfonyl)carbamimidoyl)-7-oxo-1,6-diazabicyclo[3.2.1]octan-6-yl sulfate]
> 64 µg/mL: [1]; [11] | [2]; [12] | [3]; [13] | [4]; [14] | [5]; [15] | [6] | [7] | [8]; [16] | [9]; [17] | [10]; [18]

COCCS(=O)(=O)NC(=N)[C@@H]1CC[C@@H]2CN1C(=O)N2OS(=O)(=O)[O-].[Na+] [Ex. 3, Sodium (2S,5R)-2-(N-((2-methoxyethyl)sulfonyl)carbamimidoyl)-7-oxo-1,6-diazabicyclo[3.2.1]octan-6-yl sulfate]
> 64 µg/mL: [1]; [11] | [2]; [12] | [3]; [13] | [4]; [14] | [5]; [15] | [6] | [7] | [8]; [16] | [9]; [17] | [10]; [18]
